Test results from US20100137344A1, “INDUCTION OF ANALGESIA IN NEUROPATHIC PAIN” (University Court of the University of Edinburgh, priority 2006, published 2010).

Test system: rats with chronic constriction injury (CCI) to sciatic nerve
Assay: Topical application to paws of CCI rats, behavioural reflex testing (thermal PWL, mechanical PWT)
Assay type: in vivo, rat
Conditions: for % reversal of ipsilateral sensitisation, PWL / % reversal of ipsilateral sensitisation, PWT: 10-25 minutes after icilin
Protocol: Pain models were generated under halothane anaesthesia (Zeneca, Cheshire, UK). For the chronic constriction injury (CCI) model of neuropathic pain, four ligatures were tied loosely to constrict the sciatic nerve at mid-thigh level (as described previously^[39]). An inflammatory pain model was generated by injecting 100 μl of Complete Freund's Adjuvant (CFA, Sigma-Aldrich Ltd) into the ventral surface of the right hindpaw^[39]. A model of peripheral demyelination-induced pain was produced by focal application of lysolecithin to the sciatic nerve^[40]. Peak behavioural sensitisation was observed post-surgically between days 10-16 for CCI, 1-3 for CFA, and 7-14 for lysolecithin, when pharmacological and electrophysiological experiments and tissue removal were conducted.
Thermal sensitivity was assessed by measuring paw withdrawal latency (PWL, s) in response to a noxious thermal stimulus (Hargreaves' thermal stimulator, Linton Instrumentation, Diss, UK) directed to the hindpaw mid-plantar glabrous surface. Mechanical sensitivity was recorded as the paw withdrawal threshold (PWT, mN/mm^2) to calibrated von Frey filaments (Stoelting, Ill., US), as previously described^[39]. Sensitivity to noxious cold was assessed by placing animals in a waterbath with an aluminium floor containing 1 cm deep 4° C. water and counting the time the paw was held suspended over a 20 s period.
Icilin was applied at concentrations of 2.5-500 μM (in water with 0.2% DMF), by placing CCI or naïve rats unrestrained for 5 min in a 1 cm deep waterbath (sufficient to cover paws), which was thermostatically controlled to a temperature of 30° C., or by very lightly anaesthetising rats and immersing hindpaws in small tubes containing 5 ml icilin (500 μM-5 mM, with a vehicle of 45% dimethylformamide in 0.2% aqueous Tween 80) for 5 min, followed by sensory testing for 60-80 mins. The effects of (−)-menthol and its stereoisomers isomenthol (1S,2R,5R-menthol,) and (+)-menthol (1S,2R,5S(+)-menthol) (4-16 mM in 80% ethanol) were also assessed. Relevant vehicles were always assessed in similar experiments. As a contrast, the effect of cinnamaldehyde (1.5 mM in water) and the effect of cinnamaldehyde with additional icilin (80 μM in water with 0.2% DMF) were assessed in naïve animals. The effects of icilin (80 μM) were further assessed in CCI animals that had undergone antisense and mis-sense treatment for knockdown of TRPM8 or immediately following intrathecal injection of either LY 341495 or UBP 1112. […] The effects of brief paw immersion at different temperatures (10-22° C. for 5 min) on CCI rats were assessed by mechanical testing. The effects of intrathecal LY 341495 or UBP 1112 on the reversal of ipsilateral sensitisation in CCI following a 16° C. cool challenge for 5 min were measured. Reflex testing commenced 5 minutes following challenge, unless animals had been anaesthetised, in which case 15 minutes was allowed for recovery. Six replicate animals were tested in all pharmacological experiments.
Antisense and mis-sense oligonucleotides were 22-mers with phosphorothioate bonds at the last two positions at 5′ and 3′ ends (MWG Biotech, Ebersberg, Germany). Antisense extended from base −10 to base +12 relative to the start of the open reading frame for the rat TRPM8 gene: 5′ C*T*CGAAGGACATCTTGCCGT*G*G 3′, where * represents phosphorothioate linkages. Mis-sense was designed with 4 inversions of C/G or A/T as appropriate at residues 3, 11, 14 and 22, preserving overall G/C content. BLAST searches of both oligonucleotides indicated no significant complementarity to any known gene sequence. 14-day or 7-day osmotic minipumps (for CCI experiments or naïve electrophysiology experiments respectively—Alzet Minipump, models 2002, 2001; Charles River, UK) containing oligonucleotides (1 μg/μl in sterile saline) were connected to canulae inserted under the dura of the spinal cord to level L5/6 and produced a predicted infusion rate of 0.5 μl/h. […]

[1] = icilin 80 μM topical, antisense-treated CCI animals
[2] = icilin 80 μM topical, mis-sense-treated CCI animals
[3] = icilin 1000 μM applied to paw, CCI Con, 15 mins
[4] = icilin 1000 μM applied to paw, CCI Con, 50 mins
[5] = icilin 1000 μM applied to paw, CCI Ipsi, 15 mins
[6] = icilin 1000 μM applied to paw, CCI Ipsi, 50 mins
[7] = icilin 2500 μM applied to paw, CCI Con, 15 mins
[8] = icilin 2500 μM applied to paw, CCI Con, 50 mins
[9] = icilin 2500 μM applied to paw, CCI Ipsi, 15 mins
[10] = icilin 2500 μM applied to paw, CCI Ipsi, 50 mins
[11] = icilin 5000 μM applied to paw, CCI Con, 15 mins
[12] = icilin 5000 μM applied to paw, CCI Con, 50 mins
[13] = icilin 5000 μM applied to paw, CCI Ipsi, 15 mins
[14] = icilin 5000 μM applied to paw, CCI Ipsi, 50 mins
[15] = icilin topical, antisense osmotic pumps depleted, 18 days following surgery

Structure (SMILES): CC(C)[C@@H]1CC[C@@H](C)C[C@H]1O [(−)-menthol, 1R,2S,5R-(−)-menthol]
- reversal of sensitised responses (topical, (−)-menthol 4 mM, isomenthol and (+)-menthol 8 mM and 16 mM): Specific reversal of sensitised responses

Structure (SMILES): O=C1NC(c2cccc([N+](=O)[O-])c2)=CCN1c1ccccc1O [icilin, 1-(2′-hydroxyphenyl)-4-(3″-nitrophenyl)-1,2,3,6-tetrahydropyrimidin-2-one]
- reversal of CCI-induced behavioural reflex sensitisation to thermal and mechanical stimuli (icilin 80 μM topical, 5 min, bath at 30° C.): striking reversal
- % reversal of ipsilateral sensitisation, PWL [1]: 7.7±7.4%
- % reversal of ipsilateral sensitisation, PWT [1]: 9.4±8.2%
- % reversal of ipsilateral sensitisation, PWL [2]: 82.8±6.9%
- % reversal of ipsilateral sensitisation, PWT [2]: 58.7±8.2%
- analgesia on daily repeated application (Hargreaves' test) (icilin 200 μM topical over four successive days): consistently causes analgesia
- Mechanical PWT [3]: 4530.1 ± 300.5 mN/mm^2
- Thermal PWL [3]: 16.1 ± 0.5 s
- Mechanical PWT [4]: 4530.1 ± 300.5 mN/mm^2
- Thermal PWL [4]: 15.2 ± 0.4 s
- Mechanical PWT [5]: 702.8 ± 185.3 mN/mm^2
- Thermal PWL [5]: 16.4 ± 0.8 s
- Mechanical PWT [6]: 702.8 ± 185.3 mN/mm^2
- Thermal PWL [6]: 8.6 ± 0.2 s
- Mechanical PWT [7]: 4454.9 ± 245.9 mN/mm^2
- Thermal PWL [7]: 16.8 ± 0.9 s
- Mechanical PWT [8]: 4454.9 ± 245.9 mN/mm^2
- Thermal PWL [8]: 15.3 ± 0.7 s
- Mechanical PWT [9]: 651.9 ± 193.0 mN/mm^2
- Thermal PWL [9]: 16.4 ± 0.9 s
- Mechanical PWT [10]: 651.9 ± 193.0 mN/mm^2
- Thermal PWL [10]: 8.4 ± 0.6 s
- Mechanical PWT [11]: 2040.2 ± 115.2 mN/mm^2
- Thermal PWL [11]: 16.1 ± 0.9 s
- Mechanical PWT [12]: 4830.6 ± 0.0 mN/mm^2
- Thermal PWL [12]: 13.4 ± 0.7 s
- Mechanical PWT [13]: 412.2 ± 24.3 mN/mm^2
- Thermal PWL [13]: 16.7 ± 1.0 s
- Mechanical PWT [14]: 736.0 ± 26.3 mN/mm^2
- Thermal PWL [14]: 7.2 ± 0.6 s
- % reversal of sensitisation, PWL [15]: 83.7±10.1%
- % reversal of sensitisation, PWT [15]: 54.0±7.2%
